According to patent US8211412B2, “Method for skin whitening” (Shiseido Company Ltd., priority 2009, dated 2012):

System: Mouse B16 melanoma cells
Assay: Melanin production inhibition test
Type: cell-based
Details: 3 days after addition, graded by minimum non-cytotoxic concentration at which ratio of melanin amount was 80% or less
Procedure: A test for melanin production inhibition by the compounds of the formula (1) was conducted. The test method is as follows.
Melanin Production Inhibition Test
(1) Inoculation of Cells and Addition of Test Substances
Mouse B16 melanoma cells were inoculated in a six well plate at 100,000 cells/well. The next day, test substance solutions (solvent: DMSO) were added.
(2) Cell Proliferation Test
Three days after the addition of the test substance solution, the medium was removed by aspiration. Then 1 ml of EMEM medium containing 10% Alamar Blue solution was added, and a reaction was allowed to proceed at 37° C. After 30 minutes, 100 μL of the reaction mixture was transferred to a 96 well plate and fluorescence was measured at an excitation wavelength of 544 nm and a measurement wavelength of 590 nm. Using the value thus measured as a relative value of cell count, a ratio of the cell count (% cell count) of the test substance-added group to the test substance-absent group (group in which only the solvent was added) was calculated. […] It was determined that a compound having the % cell count of 80% or more was non-cytotoxic, and that a compound having the % cell count of less than 80% was cytotoxic.
(3) Quantification of Melanin
The cells after the cell proliferation test were washed with PBS three times, and then lysed by addition of 200 μL of 1M NaOH to measure an absorbance at 475 nm. […]

CC1(C)CSC(Nc2ccccc2)=N1 [Compound 1, 4,4-dimethyl-N-phenyl-4,5-dihydrothiazol-2-amine]
Inhibitory effect on melanin production: ⊚ (the minimum concentration for inhibition of melanin production was 1 ppm or less)
